# Key:
# DLD1-WRN-KO cells = assay: Proliferation assay DLD1-WRN-KO (CellTiterGlo, 96 hours; off-target effects); conditions: Homo sapiens, read-out: Proliferation Assay DLD1-WRN-KO (GI50)
# SW48 cells = assay: Proliferation assay SW48 (CellTiterGlo, 96 hours); conditions: Homo sapiens, SW48, read-out: Proliferation Assay SW48 (GI50)
# WRN helicase = WRN helicase (Homo sapiens (Human), UniProt Q14191); assay: In vitro enzymatic activity assay on WRN helicase (DNA dependent ATPase assay, ADP-Glo); assay type: biochemical; conditions: geometric means of at least 2 determinations; read-out: WRN ATPase Activity (IC50)
# Procedure, shortened: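 The WRN helicase core (aa N517-P1238), 10 nM, hydrolysed 300 µM ATP in the presence of 0.2 nM FLAP26 DNA (Tris pH 7.5, 2 mM MgCl2, 50 mM NaCl) for 30 min at room temperature. ADP formed was quantified by ADP-Glo luminescence.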
# WRN helicase, sequence (Q14191 517-1238): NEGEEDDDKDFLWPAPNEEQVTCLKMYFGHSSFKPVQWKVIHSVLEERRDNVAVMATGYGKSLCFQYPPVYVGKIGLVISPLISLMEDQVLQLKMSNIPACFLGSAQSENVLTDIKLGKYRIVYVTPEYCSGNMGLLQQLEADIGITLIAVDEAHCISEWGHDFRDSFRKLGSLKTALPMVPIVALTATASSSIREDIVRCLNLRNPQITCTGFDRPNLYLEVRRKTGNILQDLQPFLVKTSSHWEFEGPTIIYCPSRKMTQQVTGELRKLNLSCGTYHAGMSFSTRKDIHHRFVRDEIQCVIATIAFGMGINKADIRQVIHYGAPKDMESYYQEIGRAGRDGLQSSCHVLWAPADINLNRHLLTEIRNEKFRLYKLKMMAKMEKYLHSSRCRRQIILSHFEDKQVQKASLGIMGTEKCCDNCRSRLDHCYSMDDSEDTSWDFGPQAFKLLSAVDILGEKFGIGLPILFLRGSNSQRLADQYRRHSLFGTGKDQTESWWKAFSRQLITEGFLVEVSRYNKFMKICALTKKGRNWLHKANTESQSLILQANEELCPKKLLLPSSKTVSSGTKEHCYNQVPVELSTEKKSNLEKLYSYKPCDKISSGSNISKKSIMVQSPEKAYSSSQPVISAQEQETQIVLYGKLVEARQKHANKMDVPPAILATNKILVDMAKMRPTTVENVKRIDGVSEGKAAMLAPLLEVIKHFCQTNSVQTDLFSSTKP
GI50 (DLD1-WRN-KO cells) [nM],GI50 (SW48 cells) [nM],IC50 (WRN helicase) [nM],SMILES
> 10000,70,50,"CCc1c(N2CCN(C(=O)c3nc(C)ccc3O)CC2)c(=O)n2nc(C3=CCOCC3)nc2n1CC(=O)Nc1ccc(C(F)(F)F)cc1 [Example 74, 2-(2-(3,6-dihydro-2H-pyran-4-yl)-5-ethyl-6-(4-(3-hydroxy-6-methylpicolinoyl)piperazin-1-yl)-7-oxo-[1,2,4]triazolo[1,5-a]pyrimidin-4(7H)-yl)-N-(4-(trifluoromethyl)phenyl)acetamide]"
> 10000,190,80,"CCc1c(N2CCN(C(=O)c3ncccc3O)CC2)c(=O)n2nc(-c3cccnc3)nc2n1CC(=O)Nc1ccc(C(F)(F)F)cc1C [Example 76, 2-(5-ethyl-6-(4-(3-hydroxypicolinoyl)piperazin-1-yl)-7-oxo-2-(pyridin-3-yl)-[1,2,4]triazolo[1,5-a]pyrimidin-4(7H)-yl)-N-(2-methyl-4-(trifluoromethyl)phenyl)acetamide]"
> 10000,380,210,"CCc1c(N2CCN(C(=O)c3ncccc3O)CC2)c(=O)n2nc(-c3ccc(C)nc3)nc2n1CC(=O)Nc1ccc(C(F)(F)F)cc1C [Example 77, 2-(5-ethyl-6-(4-(3-hydroxypicolinoyl)piperazin-1-yl)-2-(6-methylpyridin-3-yl)-7-oxo-[1,2,4]triazolo[1,5-a]pyrimidin-4(7H)-yl)-N-(2-methyl-4-(trifluoromethyl)phenyl)acetamide]"
> 10000,500,40,"CCc1c(N2CCN(C(=O)c3nccc(Cl)c3O)CC2)c(=O)n2nc(C3=COCCO3)nc2n1CC(=O)Nc1ccc(C(F)(F)F)c(F)c1C [Example 79, 2-(6-(4-(4-chloro-3-hydroxypicolinoyl)piperazin-1-yl)-2-(5,6-dihydro-1,4-dioxin-2-yl)-5-ethyl-7-oxo-[1,2,4]triazolo[1,5-a]pyrimidin-4(7H)-yl)-N-(3-fluoro-2-methyl-4-(trifluoromethyl)phenyl)acetamide]"
> 10000,110,70,"CCc1c(N2CCN(C(=O)c3nccc(Cl)c3O)CC2)c(=O)n2nc(N3CCC[C@H](F)C3)nc2n1CC(=O)Nc1ccc(C(F)(F)F)cc1C [Example 85, (S)-2-(6-(4-(4-chloro-3-hydroxypicolinoyl)piperazin-1-yl)-5-ethyl-2-(3-fluoropiperidin-1-yl)-7-oxo-[1,2,4]triazolo[1,5-a]pyrimidin-4(7H)-yl)-N-(2-methyl-4-(trifluoromethyl)phenyl)acetamide]"
> 10000,60,110,"CCc1c(N2CCN(C(=O)c3ncnc(C)c3O)C[C@@H]2C)c(=O)n2nc(C3=CCOCC3)nc2n1CC(=O)Nc1ccc(C(F)(F)F)cc1Cl [Example 87, (S)—N-(2-chloro-4-(trifluoromethyl)phenyl)-2-(2-(3,6-dihydro-2H-pyran-4-yl)-5-ethyl-6-(4-(5-hydroxy-6-methylpyrimidine-4-carbonyl)-2-methylpiperazin-1-yl)-7-oxo-[1,2,4]triazolo[1,5-a]pyrimidin-4(7H)-yl)acetamide]"
> 10000,760,370,"CCc1c(N2CCN(C(=O)c3ncnc(C)c3O)C[C@H]2C)c(=O)n2nc(C3=CCOCC3)nc2n1CC(=O)Nc1ccc(C(F)(F)F)cc1Cl [Example 88, (R)—N-(2-chloro-4-(trifluoromethyl)phenyl)-2-(2-(3,6-dihydro-2H-pyran-4-yl)-5-ethyl-6-(4-(5-hydroxy-6-methylpyrimidine-4-carbonyl)-2-methylpiperazin-1-yl)-7-oxo-[1,2,4]triazolo[1,5-a]pyrimidin-4(7H)-yl)acetamide]"
> 10000,170,40,"Cc1c(N2CCN(C(=O)c3ncccc3O)[C@H](C)C2)c(=O)n2nc(C3=CCOCC3)nc2n1CC(=O)Nc1ccc(C(F)(F)F)cc1 [Example 89, (R)-2-(2-(3,6-dihydro-2H-pyran-4-yl)-6-(4-(3-hydroxypicolinoyl)-3-methylpiperazin-1-yl)-5-methyl-7-oxo-[1,2,4]triazolo[1,5-a]pyrimidin-4(7H)-yl)-N-(4-(trifluoromethyl)phenyl)acetamide]"
> 10000,300,130,"Cc1ccnc(C(=O)N2CCN(c3c(C)n(CC(=O)Nc4ccc(C(F)(F)F)cc4)c4nc(C5=CCOCC5)nn4c3=O)CC2)c1O [Example 90, 2-(2-(3,6-dihydro-2H-pyran-4-yl)-6-(4-(3-hydroxy-4-methylpicolinoyl)piperazin-1-yl)-5-methyl-7-oxo-[1,2,4]triazolo[1,5-a]pyrimidin-4(7H)-yl)-N-(4-(trifluoromethyl)phenyl)acetamide]"

# The next lines start with the molecule.
SMILES,GI50 (DLD1-WRN-KO cells) [nM],GI50 (SW48 cells) [nM],IC50 (WRN helicase) [nM]
"CCc1c(N2CCN(C(=O)c3ncccc3O)CC2)c(=O)n2nc(C3=CCOCC3)nc2n1CC(=O)Nc1ccc(C(F)(F)F)cc1 [Example 72, 2-(2-(3,6-dihydro-2H-pyran-4-yl)-5-ethyl-6-(4-(3-hydroxypicolinoyl)piperazin-1-yl)-7-oxo-[1,2,4]triazolo[1,5-a]pyrimidin-4(7H)-yl)-N-(4-(trifluoromethyl)phenyl)acetamide]",> 10000,50,50
"CCc1c(N2CCN(C(=O)c3ncnc(C)c3O)CC2)c(=O)n2nc(C3=CCOCC3)nc2n1CC(=O)Nc1ccc(C(F)(F)F)cc1 [Example 73, 2-(2-(3,6-dihydro-2H-pyran-4-yl)-5-ethyl-6-(4-(5-hydroxy-6-methylpyrimidine-4-carbonyl)piperazin-1-yl)-7-oxo-[1,2,4]triazolo[1,5-a]pyrimidin-4(7H)-yl)-N-(4-(trifluoromethyl)phenyl)acetamide]",> 10000,200,70
"CCc1c(N2CCN(C(=O)c3nccc(C)c3O)CC2)c(=O)n2nc(C3=CCOCC3)nc2n1CC(=O)Nc1ccc(C(F)(F)F)cc1 [Example 75, 2-(2-(3,6-dihydro-2H-pyran-4-yl)-5-ethyl-6-(4-(3-hydroxy-4-methylpicolinoyl)piperazin-1-yl)-7-oxo-[1,2,4]triazolo[1,5-a]pyrimidin-4(7H)-yl)-N-(4-(trifluoromethyl)phenyl)acetamide]",> 10000,80,50
"CCc1c(N2CCN(C(=O)c3nccc(Cl)c3O)CC2)c(=O)n2nc(C3=COCCO3)nc2n1CC(=O)Nc1ccc(C(F)(F)F)cc1C [Example 78, 2-(6-(4-(4-chloro-3-hydroxypicolinoyl)piperazin-1-yl)-2-(5,6-dihydro-1,4-dioxin-2-yl)-5-ethyl-7-oxo-[1,2,4]triazolo[1,5-a]pyrimidin-4(7H)-yl)-N-(2-methyl-4-(trifluoromethyl)phenyl)acetamide]",> 10000,300,80
"CCc1c(N2CCN(C(=O)c3ncccc3O)CC2)c(=O)n2nc(N3CCN(CC(=O)O)CC3)nc2n1CC(=O)Nc1ccc(C(F)(F)F)cc1Cl [Example 82, 2-(4-(4-(2-((2-chloro-4-(trifluoromethyl)phenyl)amino)-2-oxoethyl)-5-ethyl-6-(4-(3-hydroxypicolinoyl)piperazin-1-yl)-7-oxo-4,7-dihydro-[1,2,4]triazolo[1,5-a]pyrimidin-2-yl)piperazin-1-yl)acetic acid]",> 10000,7720,280
"CCc1c(N2CCN(C(=O)c3ncccc3O)CC2)c(=O)n2nc(C3=CCCCO3)nc2n1CC(=O)Nc1ccc(C(F)(F)F)cc1C [Example 83, 2-(2-(3,4-dihydro-2H-pyran-6-yl)-5-ethyl-6-(4-(3-hydroxypicolinoyl)piperazin-1-yl)-7-oxo-[1,2,4]triazolo[1,5-a]pyrimidin-4(7H)-yl)-N-(2-methyl-4-(trifluoromethyl)phenyl)acetamide]",> 10000,60,90
"CCc1c(N2CCN(C(=O)c3ncccc3O)CC2)c(=O)n2nc(C3=CCCCO3)nc2n1CC(=O)Nc1ccc(C(F)(F)F)cc1 [Example 84, 2-(2-(3,4-dihydro-2H-pyran-6-yl)-5-ethyl-6-(4-(3-hydroxypicolinoyl)piperazin-1-yl)-7-oxo-[1,2,4]triazolo[1,5-a]pyrimidin-4(7H)-yl)-N-(4-(trifluoromethyl)phenyl)acetamide]",> 10000,130,50
"CCc1c(N2CCN(C(=O)c3ncnc(C)c3O)[C@H](C)C2)c(=O)n2nc(C3=CCOCC3)nc2n1CC(=O)Nc1ccc(C(F)(F)F)cc1Cl [Example 86, (R)—N-(2-chloro-4-(trifluoromethyl)phenyl)-2-(2-(3,6-dihydro-2H-pyran-4-yl)-5-ethyl-6-(4-(5-hydroxy-6-methylpyrimidine-4-carbonyl)-3-methylpiperazin-1-yl)-7-oxo-[1,2,4]triazolo[1,5-a]pyrimidin-4(7H)-yl)acetamide]",> 10000,80,90
"Cc1ccc(O)c(C(=O)N2CCN(c3c(C)n(CC(=O)Nc4ccc(C(F)(F)F)cc4)c4nc(C5=CCOCC5)nn4c3=O)CC2)n1 [Example 91, 2-(2-(3,6-dihydro-2H-pyran-4-yl)-6-(4-(3-hydroxy-6-methylpicolinoyl)piperazin-1-yl)-5-methyl-7-oxo-[1,2,4]triazolo[1,5-a]pyrimidin-4(7H)-yl)-N-(4-(trifluoromethyl)phenyl)acetamide]",> 10000,320,80
"CCc1c(N2CCN(C(=O)c3ncccc3O)CC2)c(=O)n2nc(C3=CCOCC3)nc2n1CC(=O)Nc1ccc(C(F)(F)F)cc1F [Example 92, 2-(2-(3,6-dihydro-2H-pyran-4-yl)-5-ethyl-6-(4-(3-hydroxypicolinoyl)piperazin-1-yl)-7-oxo-[1,2,4]triazolo[1,5-a]pyrimidin-4(7H)-yl)-N-(2-fluoro-4-(trifluoromethyl)phenyl)acetamide]",> 10000,80,50
